Laboratory results from ChEMBL document CHEMBL1141067, “Dipyridyl amines: potent metabotropic glutamate subtype 5 receptor antagonists” (Bioorg Med Chem Lett, 2005).
Each block holds one compound with its values, some of them ahead of it.

Tests used:
[1] = molecular target: T1, Metabotropic glutamate receptor 5 (Homo sapiens, UniProt P41594); test: In vitro potency against calcium flux in Ltk cells expressing human recombinant metabotropic glutamate receptor 5 using fluorescence detection; format: cell-based
T1 sequence (P41594 whole entry): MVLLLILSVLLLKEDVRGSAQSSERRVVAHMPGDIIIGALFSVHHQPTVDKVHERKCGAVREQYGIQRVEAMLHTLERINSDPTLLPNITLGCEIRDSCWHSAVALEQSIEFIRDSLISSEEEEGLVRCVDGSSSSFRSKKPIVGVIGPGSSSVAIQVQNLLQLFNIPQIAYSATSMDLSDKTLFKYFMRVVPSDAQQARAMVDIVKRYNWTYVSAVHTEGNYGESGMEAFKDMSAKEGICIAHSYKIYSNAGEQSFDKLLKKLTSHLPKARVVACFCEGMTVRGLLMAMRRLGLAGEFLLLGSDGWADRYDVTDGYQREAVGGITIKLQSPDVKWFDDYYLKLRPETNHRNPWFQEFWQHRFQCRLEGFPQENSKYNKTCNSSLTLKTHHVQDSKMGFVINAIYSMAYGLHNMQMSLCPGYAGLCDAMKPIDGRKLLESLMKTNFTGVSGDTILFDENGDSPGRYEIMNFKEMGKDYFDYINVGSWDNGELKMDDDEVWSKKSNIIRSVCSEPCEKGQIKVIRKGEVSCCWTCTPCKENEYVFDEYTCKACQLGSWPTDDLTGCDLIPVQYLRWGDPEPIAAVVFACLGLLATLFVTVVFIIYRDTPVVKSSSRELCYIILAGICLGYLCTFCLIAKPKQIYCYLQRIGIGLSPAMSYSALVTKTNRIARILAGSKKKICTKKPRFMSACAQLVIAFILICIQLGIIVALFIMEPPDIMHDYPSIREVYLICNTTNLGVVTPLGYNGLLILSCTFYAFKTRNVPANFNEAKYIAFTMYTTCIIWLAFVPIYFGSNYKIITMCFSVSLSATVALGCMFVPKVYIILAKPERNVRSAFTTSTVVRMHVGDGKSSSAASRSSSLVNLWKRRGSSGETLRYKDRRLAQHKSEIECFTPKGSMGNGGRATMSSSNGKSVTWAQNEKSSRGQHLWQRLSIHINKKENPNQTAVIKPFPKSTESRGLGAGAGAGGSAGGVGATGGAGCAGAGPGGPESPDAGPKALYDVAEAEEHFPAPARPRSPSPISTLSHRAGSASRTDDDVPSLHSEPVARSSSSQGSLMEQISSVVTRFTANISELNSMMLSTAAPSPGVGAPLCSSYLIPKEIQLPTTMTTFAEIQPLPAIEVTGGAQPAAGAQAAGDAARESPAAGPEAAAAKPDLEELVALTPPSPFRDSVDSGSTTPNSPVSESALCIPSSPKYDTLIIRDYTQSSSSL

[2] = Bioavailability (10 mg/kg, p.o.) in Sprague Dawley rats; format: ADME, organism-based; settings: rat, in vivo, po
[3] = Half-life (2 mg/kg, i.v.) was determined in Sprague-Dawley rats; format: ADME, organism-based; settings: rat, in vivo, iv
[4] = Plasma clearance (2 mg/kg, i.v.) was determined in Sprague-Dawley rats; format: ADME, organism-based; settings: rat, iv, read-out: Clp
[5] = Volume of distribution (2 mg/kg, iv.) was determined in Sprague Dawley rats; not determined; format: ADME, organism-based; settings: rat, in vivo
[6] = system: Rattus norvegicus; test: In vivo receptor occupancy was determined in rats following intravenous dosage at 10 mg/kg; format: functional
[7] = molecular target: T1, Metabotropic glutamate receptor 5; test: In vitro potency against calcium flux in Ltk cells expressing human recombinant metabotropic glutamate receptor 5 using fluorescence detection; not active at 10 uM; format: cell-based
[8] = Volume of distribution (2 mg/kg, iv.) was determined in Sprague Dawley rats; format: ADME, organism-based; settings: rat, in vivo
[9] = Bioavailability (10 mg/kg, p.o.) was determined in Sprague Dawley rats; format: ADME, organism-based; settings: rat, in vivo, po

SMILES: CCOc1cc(-c2cccnc2)cnc1Nc1cccc(C)n1
IC50 [1]: 12 nM
bioavailability [2]: 38%
half-life [3]: 1 h
clearance [4]: 50 mL/min/kg

SMILES: CCOc1cc(-c2cncnc2)cnc1Nc1cccc(C)n1
IC50 [1]: 36 nM
bioavailability [2]: 67%
half-life [3]: 0.6 h
Vd [5]: 2.3 L/kg
Receptor occupancy [6]: 79%
clearance [4]: 79 mL/min/kg

SMILES: Cc1cccc(Nc2ncccc2C)n1
IC50 [7]: Not Active

SMILES: CCOc1cccnc1Nc1ccccn1
IC50 [1]: 138 nM
bioavailability [2]: 16%
half-life [3]: 0.8 h
Vd [8]: 2.9 L/kg
clearance [4]: 78 mL/min/kg

SMILES: CCOc1cccnc1Nc1cccc(C(F)(F)F)n1
IC50 [1]: 1900 nM

SMILES: CCOc1cccnc1Nc1cccc(C(=O)OC)n1
IC50 [1]: 6200 nM

SMILES: CCOc1ncccc1Nc1cccc(C)n1
IC50 [7]: Not Active

SMILES: Cc1cccc(Nc2ncccc2C#N)n1
IC50 [7]: Not Active

SMILES: Cc1cccc(Nc2ncccc2OCc2ccccc2)n1
IC50 [1]: 870 nM

SMILES: CCCOc1cccnc1Nc1cccc(C)n1
IC50 [1]: 1600 nM

SMILES: Cc1cccc(Nc2ncccc2-c2ccccc2)n1
IC50 [7]: Not Active

SMILES: CCOc1cc(C#N)cnc1Nc1cccc(C)n1
IC50 [1]: 46 nM
bioavailability [2]: 13%
half-life [3]: 1.6 h
Vd [8]: 7 L/kg
clearance [4]: 90 mL/min/kg

SMILES: CCOc1cc(-c2ccc(C)cc2)cnc1Nc1cccc(C)n1
IC50 [1]: 513 nM

SMILES: CSc1cccnc1Nc1cccc(C)n1
IC50 [1]: 790 nM

SMILES: CCOc1cc(-c2ccsn2)cnc1Nc1cccc(C)n1
IC50 [1]: 243 nM

SMILES: CCOc1cc(Cl)cnc1Nc1cccc(C)n1
IC50 [1]: 17 nM

SMILES: CCOc1cc(-c2ccccn2)cnc1Nc1cccc(C)n1
IC50 [1]: 193 nM
bioavailability [2]: 0%
half-life [3]: 1 h
Vd [8]: 6.1 L/kg
clearance [4]: 124 mL/min/kg

SMILES: CCOc1cccnc1Nc1cccc(C)n1
IC50 [1]: 40 nM
bioavailability [9]: 11%
half-life [3]: 2.1 h
Vd [8]: 1.2 L/kg
clearance [4]: 16 mL/min/kg

SMILES: COc1cccc(F)c1Nc1cccc(C)n1
IC50 [7]: Not Active

More lines, main results first:

IC50 [1]: 556 nM
SMILES: CCOc1cccnc1Nc1cccc(OC)n1

IC50 [7]: Not Active
SMILES: Cc1cccc(Nc2ncccc2O)n1

IC50 [1]: 458 nM
SMILES: COc1cccnc1Nc1cccc(C)n1

IC50 [1]: 45 nM
bioavailability [2]: 8%
half-life [3]: 0.7 h
Vd [5]: 4.7 L/kg
clearance [4]: 105 mL/min/kg
SMILES: CCOc1cc(-c2cnccc2C)cnc1Nc1cccc(C)n1

IC50 [1]: 80 nM
SMILES: CCOc1cc(-c2cccnc2C#N)cnc1Nc1cccc(C)n1

IC50 [1]: 119 nM
SMILES: CCOc1cc(C)cnc1Nc1cccc(C)n1

IC50 [7]: Not Active
SMILES: CCOc1ccc(C)nc1Nc1cccc(C)n1

IC50 [1]: 37 nM
SMILES: CCOc1cc(-c2ccccc2C#N)cnc1Nc1cccc(C)n1

IC50 [7]: Not Active
SMILES: COC(=O)c1cccnc1Nc1cccc(C)n1

IC50 [7]: Not Active
SMILES: CCOc1ccccc1Nc1cccc(C)n1

IC50 [1]: 3000 nM
SMILES: CCNc1cccnc1Nc1cccc(C)n1

IC50 [1]: 394 nM
half-life [3]: 1 h
clearance [4]: 320 mL/min/kg
SMILES: CCCc1cccnc1Nc1cccc(C)n1

IC50 [1]: 2700 nM
SMILES: CCOc1c(C)ccnc1Nc1cccc(C)n1

IC50 [1]: 1000 nM
SMILES: Cc1cccc(Nc2ncccc2OC(C)C)n1

IC50 [1]: 267 nM
SMILES: CCOc1cc(-c2ccccc2)cnc1Nc1cccc(C)n1

IC50 [1]: 18 nM
half-life [3]: 1.2 h
Vd [5]: 3.7 L/kg
clearance [4]: 52 mL/min/kg
SMILES: CCOc1cc(Oc2cccnc2)cnc1Nc1cccc(C)n1
Receptor occupancy [6]: 82%

IC50 [1]: 126 nM
bioavailability [2]: 19%
half-life [3]: 0.5 h
Vd [8]: 3 L/kg
clearance [4]: 93 mL/min/kg
SMILES: CCOc1cc(-c2cccc(F)c2)cnc1Nc1cccc(C)n1

IC50 [1]: 47 nM
SMILES: CCOc1cc(Br)cnc1Nc1cccc(C)n1

IC50 [7]: Not Active
SMILES: Cc1cccc(Nc2ncccc2-c2cccnc2)n1

IC50 [1]: 497 nM
half-life [3]: 1 h
clearance [4]: 102 mL/min/kg
SMILES: CCOc1nccnc1Nc1cccc(C)n1
